The assay has as its target Dihydroorotate dehydrogenase (quinone), mitochondrial (Homo sapiens, UniProt Q02127). Briefly: Enzyme Assay: The DHODH activity assay is a coupled enzyme assay in which oxidation of DHO and subsequent reduction of ubiquinone are stoichiometrically equivalent to the reduction of DCIP ([…]). The reduction of DCIP is accompanied by a loss of absorbance at 610 nm.Reagents Used:L-Dihydroorotic acid, Sigma, D7128, 2,6-Dichloroindophenol sodium salt hydrate, sigma, D1878 Dimethyl sulfoxide (DMSO), spectroscopic grade purchased from Spectrochem, cat no. 0704209, B. no.--3183650 Decylubiquinone, Sigma, D7911Preparation of Solutions/Reagents:Buffer Preparation: 50 mM tris HCl, 150 mM KCl, and pH 8.0, 0.8% triton.L-Dihydroorotic acid stock solution of 20 mM in buffer2,6-Dichloroindophenol Sodium salt hydrate stock solution of 20 mM in bufferDecylubiquinone stock solution of 20 mM in bufferDMSO used as vehicleProcedure:5 µL of Dimethyl sulfoxide or a compound of formula I in DMSO solution was added to the wells of a 96 well plate. Compounds of formula I were measured at 10 µM.

pIC50: −log10 of the molar value.

Sequence of Dihydroorotate dehydrogenase (quinone), mitochondrial (Q02127 whole entry): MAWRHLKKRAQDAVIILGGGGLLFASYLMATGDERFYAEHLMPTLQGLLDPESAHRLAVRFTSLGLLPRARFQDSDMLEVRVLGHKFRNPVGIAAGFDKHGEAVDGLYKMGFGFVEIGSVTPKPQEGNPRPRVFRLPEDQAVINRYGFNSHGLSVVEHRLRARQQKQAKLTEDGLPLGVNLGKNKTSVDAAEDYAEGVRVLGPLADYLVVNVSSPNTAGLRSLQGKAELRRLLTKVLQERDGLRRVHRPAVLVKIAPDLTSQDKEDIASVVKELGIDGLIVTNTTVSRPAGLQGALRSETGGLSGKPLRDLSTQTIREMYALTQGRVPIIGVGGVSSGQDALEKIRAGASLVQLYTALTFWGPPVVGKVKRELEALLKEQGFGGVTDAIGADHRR

`Cc1cc(C(=O)O)c2nc(C#Cc3ccccc3)[nH]c2c1`: the pIC50 was 4.94.
